Measured values as given in patent publication US9464064B2, “HCV helicase inhibitors and methods of use thereof” (University of Kansas, priority 2011, dated 2016).
Where two headings read alike, the source gives them in different places.

Tests used:
NS3h_2a(JFH1) = biological target: T1, NS3h_2a(JFH1) (Hepatitis C virus genotype 2a, UniProt Q99IB8); experiment: MBHA, DNA substrate, genotype 2a helicase; format: biochemical, hepatitis C virus genotype 2a(JFH1)
T1 construct: truncated C-terminally His-tagged NS3 proteins lacking the N-terminal protease, called NS3h; His-tag (C); made in house
Description: All oligonucleotides were purchased from Integrated DNA Technologies (IDT, Coralville, Iowa). Primuline derivatives were synthesized and purified as described herein. Three different NS3 proteins were used in this study. Two were truncated C-terminally His-tagged NS3 proteins lacking the N-terminal protease, called NS3h, the third was a full-length NS3 with the portion of NS4A needed for protease activation fused to its N-terminus, called scNS4A-NS3 (Howe, et al. (1999) Protein Sci. 8:1332-41), and the fourth was a 23 kDa scNS4A-NS3 protease fragment lacking the helicase domains, called scNS4A-NS3p (Protein One, Rockville, Md.). NS3h was expressed from two different HCV strains. NS3h_1b(con1) was from the con1 strain of genotype 1b (GENBANK accession AB114136), and NS3h_2a(JFH1) was from the JFH1 strain of HCV genotype 2a (GENBANK accession AJ238799). […] His-tagged recombinant NS3h_1b(con1), NS3h_2a(JFH1), and scNS4A-NS3 (also from genotype 1b(con1)) were expressed, and purified as previously described (Frick, et al. (2010) supra; Lam, et al. (2003) J. Virol. 77:3950-3961). The scNS4A-NS3p (genotype 1b) was from Protein One. A plasmid expressing NS3h from dengue virus strain 2 (NS3h_DV2)(GENBANK accession 2BMF) is known in the art (Xu, et al. (2005) J. Virol. 79:10278-10288), and used to express and purify NS3h_DV2 (Belon, et al. (2010) supra)
Compounds that specifically target less conserved regions of a HCV protein are often not potent inhibitors of the same protein derived from other genotypes, and they might be susceptible to rapid evolution of related viruses. As described herein, primuline derivatives can inhibit HCV helicase isolated from the genotype 1b(con1) strain. Therefore to further analyze specificity, the subset of primuline analogs was tested on the helicase isolated from the genotype 2a(JFH1) strain. The two recombinant proteins differ at 83 of their 480 amino acids. The JHF1 strain is also of interest because it serves as the backbone for HCV strains capable of replicating in cell culture (Wakita, et al. (2005) Nat. Med. 11:791-796). The molecular beacon-based helicase assay (MBHA) (Belon & Frick (2008) supra) was used to measure the ability of each compound to inhibit DNA unwinding catalyzed by NS3h isolated from genotype 2a(JFH1) (NS3h_2a(JFH1)). […] Selected compounds were also tested for the ability to inhibit helicase reactions catalyzed by full-length NS3 and a single chain NS4A-NS3 protein (scNS4A-NS3) described below and used for protease assays.

[1] = biological target: T2, HCV NS3 helicase NS3h_1b(con1) (Hepatitis C virus genotype 1b, UniProt Q9WMX2); experiment: biochemical; format: biochemical, hepatitis C virus genotype 1b(con1)
T2 construct: truncated C-terminally His-tagged NS3 proteins lacking the N-terminal protease, called NS3h; His-tag (C); made in house
Text: All oligonucleotides were purchased from Integrated DNA Technologies (IDT, Coralville, Iowa). The partially duplex DNA substrates used in MBHAs consisted of a helicase substrate forming 25 base pairs and consists of a 45-mer bottom strand 5′-GCTCCCCGTTCATCGATTGGGGAGC(T)20-3′ (SEQ ID NO:1) and the 25-mer HCV top strand 5′-Cy5-GCTCCCCAATCGATGAACGGGGAGC-IBRQ-3′ (SEQ ID NO:2). The 19 base pair RNA substrate used in MBHAs was composed of a 39 nucleotide long bottom strand 5′-AGU GCC UUG ACG AUA CAG C(U)20-3′ (SEQ ID NO:3) and the 24 nucleotide long top strand 5′-Tye^665-AGUGCGCUGUAUCGUCAAGGCACU-IBRQSp-3′ (SEQ ID NO:4). Underlined areas denote hairpin-forming regions. DNA and RNA substrates were annealed and purified as described previously (Belon & Frick (2008) BioTechniques 45:433-40, 442).
The cloning, expression, and purification of His-tagged recombinant HCV NS3 protein have been described previously (Lam, et al. (20030 J. Virol. 77:3950-61; Heck, et al. (2008) Antimicrob. Agents Chemother. 52:1901-11; Frick et al. (2010) Methods Mol. Biol. 587:223-233; Belon, et al. & Frick (2009) J. Mol. Biol. 388:851-864).
All molecular beacon-based helicase assays (MBHAs) were performed according to known methods (Belon & Frick (2008) supra; Belon & Frick (2009) supra). […] In each flat, black 384-well plate, 56 compounds were tested, in triplicate, along with three negative controls (DMSO only), three positive controls (500 nM dT20), and two wells with no enzyme. Fluorescence was read before ATP (F0) addition and 30 minutes after ATP was added to 1 mM (F30) using a Tecan Infinite M200 fluorescence microplate reader with excitation and emission wavelengths set to 643 and 670 nm, respectively. Percent inhibition was calculated with equation 1, and compound interference in the MBHA was calculated with equation 2.
To monitor helicase reaction kinetics and to calculate IC50 values, MBHAs were performed in 60 μL in white ½ area 96-well plates and measured in a Thermo Varioscan Multimode reader (Thermo Scientific) using the 643 nm excitation wavelength and 667 emission wavelengths. Reactions were again performed by first incubating all components except for ATP for two minutes, then initiated by injecting in 1/10 volume of ATP such that the final concentration of all components was as noted above. Conditions were as described above except that 5% v/v DMSO was present in each assay. Initial reaction velocities were calculated by fitting first-order decay equation to data obtained after ATP addition and calculating an initial velocity form the resulting amplitude and rate constant.
[formula] where, v0 is the velocity observed in DMSO-only controls inhibition, h is the Hillslope coefficient, [I] is the concentration of test compound.

[2] = genotype 2a (JFH1), read-out: Target Potency MBHA (IC50 avg., μM) 2a (JFH1) (converted)
[3] = genotype 1b (con1), read-out: Target Potency MBHA (IC50 avg., μM) 1b (con1)
[4] = standard HCV helicase MBHA (Table 9), read-out: DNA Unwinding IC50
[5] = MBHA, DNA unwinding, mean ± SD of three titrations, read-out: Helicase IC50
[6] = DNA-based MBHA, genotype 2a(JFH1), read-out: DNA Helicase NS3h_2a IC50 (μM) ± SD
[7] = DNA-based MBHA, genotype 1b, read-out: DNA Helicase NS3h_1b IC50 (μM) ± SD

T2 sequence (Q9WMX2 1192-1657): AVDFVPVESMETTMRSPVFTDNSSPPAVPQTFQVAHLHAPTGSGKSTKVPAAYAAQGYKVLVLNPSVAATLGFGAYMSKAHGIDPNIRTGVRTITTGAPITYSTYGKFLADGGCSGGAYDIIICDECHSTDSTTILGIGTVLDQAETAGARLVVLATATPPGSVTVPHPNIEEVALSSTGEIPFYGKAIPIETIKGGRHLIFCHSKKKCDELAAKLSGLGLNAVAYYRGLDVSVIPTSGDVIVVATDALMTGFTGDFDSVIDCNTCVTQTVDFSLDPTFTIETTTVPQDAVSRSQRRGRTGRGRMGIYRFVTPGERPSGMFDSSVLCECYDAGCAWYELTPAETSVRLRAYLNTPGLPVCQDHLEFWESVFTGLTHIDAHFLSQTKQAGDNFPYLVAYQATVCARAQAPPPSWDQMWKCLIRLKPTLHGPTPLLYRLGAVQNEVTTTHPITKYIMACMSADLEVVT
T1 sequence (Q99IB8 1196-1661): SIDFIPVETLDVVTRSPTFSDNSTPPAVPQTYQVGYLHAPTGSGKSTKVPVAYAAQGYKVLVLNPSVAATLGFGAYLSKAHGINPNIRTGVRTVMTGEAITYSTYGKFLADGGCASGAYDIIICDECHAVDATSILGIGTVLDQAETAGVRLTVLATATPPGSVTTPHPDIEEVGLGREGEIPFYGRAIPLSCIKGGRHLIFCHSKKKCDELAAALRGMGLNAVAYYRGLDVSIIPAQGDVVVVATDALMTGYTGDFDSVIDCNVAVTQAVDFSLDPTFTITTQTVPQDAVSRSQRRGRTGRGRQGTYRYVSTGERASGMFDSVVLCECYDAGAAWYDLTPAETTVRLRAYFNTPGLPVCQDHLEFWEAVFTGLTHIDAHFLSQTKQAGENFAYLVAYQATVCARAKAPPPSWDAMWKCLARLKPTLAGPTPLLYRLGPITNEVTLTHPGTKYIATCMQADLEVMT

Compound	IC50 (NS3h_2a(JFH1); [2]) [µM]	IC50 [1, 3] [µM]	IC50 [1, 4] [µM]	IC50 [1, 5] [µM]	also measured
Cc1ccc2nc(-c3ccc(NC(=O)c4ccc(NC(=O)c5ccc(C(F)(F)F)cc5)cc4)cc3)sc2c1S(=O)(=O)O.N [Compound 44]	14.7	10.4 ± 1.9	10 ± 2		
Cc1ccc2nc(-c3ccc4nc(-c5ccc(NC(=O)c6ccc(CNC(=O)OCC7c8ccccc8-c8ccccc87)cc6)cc5)sc4c3)sc2c1S(=O)(=O)O.N [Compound 41]	4.6	4.4 ± 0.3	4		
Cc1ccc2nc(-c3ccc(NC(=O)c4ccc(NC(=O)c5ccccc5)cc4)cc3)sc2c1S(=O)(=O)O.N [Compound 40]	79.2	81.4 ± 22	81 ± 22		
COc1ccc(C(=O)Nc2ccc(-c3nc4ccc(-c5nc6ccc(C)c(S(=O)(=O)O)c6s5)cc4s3)cc2)cc1 [Compound 8, 2′-(4-(4-methoxybenzamido)phenyl)-6-methyl-[2,6′-bibenzo[d]thiazole]-7-sulfonic acid]					IC50 (NS3h_2a(JFH1); Target Potency MBHA (IC50 avg., μM) 2a (JFH1), genotype 2a (JFH1)): 5.4 ± 1.4 µM; IC50 ([1]; DNA Unwinding IC50, standard HCV helicase MBHA (Table 9)): 10 ± 3 µM; IC50 ([1]; Helicase IC50, MBHA, DNA unwinding, mean ± SD of three titrations): 10 ± 2.6 µM; IC50 ([1]; Target Potency MBHA (IC50 avg., μM) 1b (con1), genotype 1b (con1)): 10 ± 2.6 µM
Cc1ccc2nc(-c3ccc4nc(-c5ccc(NC(=O)c6cccc(C(F)(F)F)c6F)cc5)sc4c3)sc2c1S(=O)(=O)O [Compound 22, 2′-(4-(2-fluoro-3-(trifluoromethyl)benzamido)phenyl)-6-methyl-[2,6′-bibenzo[d]thiazole]-7-sulfonic acid]	8.1 ± 2	9.2 ± 3	9 ± 3	9.2 ± 3	
Cc1ccc2nc(-c3ccc4nc(NC(=O)c5ccc6ncoc6c5)sc4c3)sc2c1	75 ± 32.6	60 ± 6.1			
Cc1ccc2nc(-c3ccc4nc(-c5ccc(N(C)C(=O)c6ccc7ccccc7c6)cc5)sc4c3)sc2c1S(=O)(=O)O [Compound 34, 6-methyl-2′-(4-(N-methyl-2-naphthamido)phenyl)-[2,6′-bibenzo[d]thiazole]-7-sulfonic acid]	13.5	14.4 ± 0.04	14	14 ± 0.1	
Cc1ccc2nc(-c3ccc4nc(-c5ccc(NC(=O)c6cccc(C(F)(F)F)c6)cc5)sc4c3)sc2c1S(=O)(=O)O [Compound 20, 6-methyl-2′-(4-(3-(trifluoromethyl)benzamido)phenyl)-[2,6′-bibenzo[d]thiazole]-7-sulfonic acid]	15.9 ± 2	19.7 ± 12		20 ± 12	
Cc1ccc2nc(-c3ccc4nc(-c5ccc(NC(=O)c6ccc7ncoc7c6)cc5)sc4c3)sc2c1S(=O)(=O)O	6.4	3.6 ± 1			
Cc1ccc2nc(-c3ccc4nc(-c5ccc6nc(-c7ccc(N)cc7)sc6c5)sc4c3)sc2c1S(=O)(=O)O [Compound P3, 2″-(4-aminophenyl)-6-methyl-[2,6′:2′,6″-terbenzo[d]thiazole]-7-sulfonic acid]				0.9 ± 0.1	
Cc1ccc2nc(-c3ccc4nc(-c5ccc(NC(=O)c6cc(F)cc(C(F)(F)F)c6)cc5)sc4c3)sc2c1S(=O)(=O)O [Compound 27, 2′-(4-(3-fluoro-5-(trifluoromethyl)benzamido)phenyl)-6-methyl-[2,6′-bibenzo[d]thiazole]-7-sulfonic acid]	15.8 ± 2.2	28.4 ± 7		28 ± 7	
COC(=O)c1ccc(C(=O)Nc2ccc(-c3nc4ccc(-c5nc6ccc(C)c(S(=O)(=O)O)c6s5)cc4s3)cc2)cc1 [Compound 9, 2′-(4-(4-(methoxycarbonyl)benzamido)phenyl)-6-methyl-[2,6′-bibenzo[d]thiazole]-7-sulfonic acid]	2.4 ± 0.6	9.7 ± 4.6	10 ± 5	9.7 ± 4.6	
Cc1ccc2nc(-c3ccc4nc(-c5ccc(NC(=O)c6ccc(C(F)(F)F)cc6)cc5)sc4c3)sc2c1S(=O)(=O)O [Compound 12, 6-methyl-2′-(4-(4-(trifluoromethyl)benzamido)phenyl)-[2,6′-bibenzo[d]thiazole]-7-sulfonic acid]	2.5 ± 1	1.8 ± 0.4	2	1.8 ± 0.4	IC50 (NS3h_2a(JFH1); [6]): 2 ± 1 µM; IC50 [1, 7]: 2 ± 0.4 µM
Cc1ccc2nc(-c3ccc4nc(-c5ccc(NC(=O)c6ccc(C(C)(C)C)cc6)cc5)sc4c3)sc2c1S(=O)(=O)O [Compound 13, 2′-(4-(4-(tert-butyl)benzamido)phenyl)-6-methyl-[2,6′-bibenzo[d]thiazole]-7-sulfonic acid]	5 ± 0.7	8.2 ± 1	8 ± 1	8.2 ± 1	IC50 (NS3h_2a(JFH1); [6]): 5 ± 0.7 µM; IC50 [1, 7]: 8 ± 1 µM
Cc1ccc2nc(-c3ccc(NC(=O)c4ccc(NC(=O)OCC5c6ccccc6-c6ccccc65)cc4)cc3)sc2c1S(=O)(=O)O.N [Compound 42]	12	12 ± 3.7	12 ± 4		
Cc1ccc2nc(-c3ccc4nc(-c5ccc(NC(=O)c6c(F)cccc6C(F)(F)F)cc5)sc4c3)sc2c1S(=O)(=O)O [Compound 21, 2′-(4-(2-fluoro-6-(trifluoromethyl)benzamido)phenyl)-6-methyl-[2,6′-bibenzo[d]thiazole]-7-sulfonic acid]	54 ± 19.7	16.8 ± 6	17 ± 6	17 ± 6	
Cc1ccc2nc(-c3ccc4nc(-c5ccc(NC(=O)c6cccnc6)cc5)sc4c3)sc2c1S(=O)(=O)O [Compound 31, 6-methyl-2′-(4-(nicotinamido)phenyl)-[2,6′-bibenzo[d]thiazole]-7-sulfonic acid]	48				
Cc1ccc2nc(-c3ccc4nc(-c5ccc(NC(=O)c6ccncc6)cc5)sc4c3)sc2c1S(=O)(=O)O [Compound 32, 2′-(4-(isonicotinamido)phenyl)-6-methyl-[2,6′-bibenzo[d]thiazole]-7-sulfonic acid]	52 ± 25				
